According to patent US8404713B2, “Quinolinone derivatives as PARP inhibitors” (Janssen Pharmaceutica NV, priority 2007, dated 2013):
Counter-ions that a name gives are not always drawn.

Columns and labels:
Human PARP-1 enzyme = molecular target: T1, Human PARP-1 enzyme (Homo sapiens, UniProt P09874); test: In vitro scintillation proximity assay (SPA) for PARP-1 inhibitory activity; assay type: biochemical; conditions: nicked DNA activated PARP-1, [3H]-NAD+, biotinylated histones; tested between 10^-5 M and 3x10^-9 M; read-out: in vitro SPA assay PARP-1 pIC50 (converted)
T1 construct: purchased Trevigen
T1 sequence (P09874 whole entry): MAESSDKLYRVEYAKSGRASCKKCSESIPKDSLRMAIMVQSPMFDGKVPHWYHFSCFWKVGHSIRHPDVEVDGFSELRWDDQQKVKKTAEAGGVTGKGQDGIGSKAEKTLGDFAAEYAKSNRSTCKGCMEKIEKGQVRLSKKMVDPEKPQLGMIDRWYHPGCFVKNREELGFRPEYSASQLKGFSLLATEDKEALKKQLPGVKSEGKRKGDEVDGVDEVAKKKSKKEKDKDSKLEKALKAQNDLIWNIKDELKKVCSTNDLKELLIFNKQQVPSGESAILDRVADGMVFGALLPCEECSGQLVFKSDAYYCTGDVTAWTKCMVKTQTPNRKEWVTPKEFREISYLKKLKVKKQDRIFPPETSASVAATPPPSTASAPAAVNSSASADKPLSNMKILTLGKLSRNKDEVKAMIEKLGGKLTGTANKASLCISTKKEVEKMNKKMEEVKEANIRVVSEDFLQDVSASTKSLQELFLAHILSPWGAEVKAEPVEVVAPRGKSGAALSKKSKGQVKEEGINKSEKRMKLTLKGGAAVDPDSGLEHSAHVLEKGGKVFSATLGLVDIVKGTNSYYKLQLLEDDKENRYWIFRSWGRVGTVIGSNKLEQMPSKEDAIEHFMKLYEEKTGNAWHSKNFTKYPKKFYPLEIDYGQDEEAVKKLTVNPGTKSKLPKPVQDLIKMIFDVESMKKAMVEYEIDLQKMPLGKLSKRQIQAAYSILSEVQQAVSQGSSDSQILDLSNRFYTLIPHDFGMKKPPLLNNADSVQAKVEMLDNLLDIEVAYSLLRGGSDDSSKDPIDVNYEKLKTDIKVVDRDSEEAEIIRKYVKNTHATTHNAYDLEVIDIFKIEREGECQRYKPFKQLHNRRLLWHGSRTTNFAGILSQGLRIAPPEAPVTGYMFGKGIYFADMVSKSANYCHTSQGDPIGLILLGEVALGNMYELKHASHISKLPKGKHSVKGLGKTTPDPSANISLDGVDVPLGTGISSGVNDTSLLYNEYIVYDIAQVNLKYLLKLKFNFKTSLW
Procedure: C.1. In Vitro Scintillation Proximity Assay (SPA) for PARP-1 Inhibitory Activity
Compounds of the present invention were tested in an in vitro assay based on SPA technology (proprietary to GE healthcare).
In principle, the assay relies upon the well established SPA technology for the detection of poly(ADP-ribosyl)ation of biotinylated target proteins, i.e histones. This ribosylation is induced using nicked DNA activated PARP-1 enzyme and [^3H]-nicotinamide adenine dinucleotide ([^3H]-NAD^+) as ADP-ribosyl donor.
Histones (type II-A, supplier: Sigma) were biotinylated using the biotinylation kit of Amersham and stored aliquoted at −20° C. A stock solution of 100 mg/ml SPA poly(vinyl toluene) (PVT) beads (supplier: Amersham) was made in PBS. A stock solution of 61.6 nM [^3H]-NAD^+ was made by adding [^3H]-NAD^+ (0.1 mCi/ml, supplier: Perkin Elmer) to incubation buffer (50 mM Tris/HCl, pH 8; 0.2 mM DTT; 4 mM MgCl2). A solution of 4 mM NAD^+ (supplier: Sigma) was made. Human PARP-1 enzyme was obtained from Trevigen. Biotinylated histones and PVT-SPA beads were mixed and pre-incubated for 30 min. at room temperature. PARP-1 enzyme (concentration was lot dependent) was mixed with the nicked DNA and the mixture was pre-incubated for 30 min. at 4° C. Equal parts of this histones/PVT-SPA beads solution and PARP-1 enzyme/DNA solution were mixed and 75 μl of this mixture together with 1 μl of compound in DMSO and 25 μl of [^3H]-NAD^+ was added per well into a 96-well microtiterplate. The final concentrations in the incubation mixture were 2 μg/ml for the biotinylated histones, 2 mg/ml for the PVT-SPA beads, 0.25 μg/ml for the nicked DNA and between 0.1-0.2 μg/ml for the PARP-1 enzyme. After incubation of the mixture for 20 min. at room temperature, the reaction was terminated by adding 100 μl of 4 mM NAD^+ in water (final concentration 2 mM) and plates were mixed. The beads were sedimented by centrifugation (10 min, 800 rpm). and plates transferred to a TopCountNXT™ (Packard) for scintillation counting, values were expressed as counts per minute (cpm). For each experiment, controls (containing PARP-1 enzyme and DMSO without compound), a blank incubation (containing DMSO but no PARP-1 enzyme, no DNA or compound) and samples (containing PARP-1 enzyme, DNA and compound dissolved in DMSO) were run in parallel. All compounds tested were dissolved and eventually further diluted in DMSO. A dose-response curve was made wherein the compounds were tested at concentrations between 10^−5M and 3×10^−9M. In each test, the blank value was subtracted from both the control and the sample values. The control sample represented maximal PARP-1 enzyme activity. For each sample, the amount of cpm was expressed as a percentage of the mean cpm value of the controls. When appropriate, IC50-values (concentration of the drug, needed to reduce the PARP-1 enzyme activity to 50% of the control) were computed using linear interpolation between the experimental points just above and below the 50% level. Herein the effects of test compounds are expressed as pIC50 (the negative log value of the IC50-value). As a reference compound, 4-amino-1,8-naphthalimide was included to validate the SPA assay.

TANK-2 enzyme = molecular target: T2, TANK-2 enzyme (Homo sapiens, UniProt Q9H2K2); test: In vitro scintillation proximity assay (SPA) for TANK-2 inhibitory activity; assay type: biochemical; conditions: auto-poly(ADP-ribosyl)ation, Ni flash plates; 96-well results if available, otherwise 384-well; tested between 10^-5 M and 3x10^-8 M; read-out: in vitro SPA assay TANK-2 pIC50 (converted)
T2 construct: made in house
T2 sequence (Q9H2K2 1-1166): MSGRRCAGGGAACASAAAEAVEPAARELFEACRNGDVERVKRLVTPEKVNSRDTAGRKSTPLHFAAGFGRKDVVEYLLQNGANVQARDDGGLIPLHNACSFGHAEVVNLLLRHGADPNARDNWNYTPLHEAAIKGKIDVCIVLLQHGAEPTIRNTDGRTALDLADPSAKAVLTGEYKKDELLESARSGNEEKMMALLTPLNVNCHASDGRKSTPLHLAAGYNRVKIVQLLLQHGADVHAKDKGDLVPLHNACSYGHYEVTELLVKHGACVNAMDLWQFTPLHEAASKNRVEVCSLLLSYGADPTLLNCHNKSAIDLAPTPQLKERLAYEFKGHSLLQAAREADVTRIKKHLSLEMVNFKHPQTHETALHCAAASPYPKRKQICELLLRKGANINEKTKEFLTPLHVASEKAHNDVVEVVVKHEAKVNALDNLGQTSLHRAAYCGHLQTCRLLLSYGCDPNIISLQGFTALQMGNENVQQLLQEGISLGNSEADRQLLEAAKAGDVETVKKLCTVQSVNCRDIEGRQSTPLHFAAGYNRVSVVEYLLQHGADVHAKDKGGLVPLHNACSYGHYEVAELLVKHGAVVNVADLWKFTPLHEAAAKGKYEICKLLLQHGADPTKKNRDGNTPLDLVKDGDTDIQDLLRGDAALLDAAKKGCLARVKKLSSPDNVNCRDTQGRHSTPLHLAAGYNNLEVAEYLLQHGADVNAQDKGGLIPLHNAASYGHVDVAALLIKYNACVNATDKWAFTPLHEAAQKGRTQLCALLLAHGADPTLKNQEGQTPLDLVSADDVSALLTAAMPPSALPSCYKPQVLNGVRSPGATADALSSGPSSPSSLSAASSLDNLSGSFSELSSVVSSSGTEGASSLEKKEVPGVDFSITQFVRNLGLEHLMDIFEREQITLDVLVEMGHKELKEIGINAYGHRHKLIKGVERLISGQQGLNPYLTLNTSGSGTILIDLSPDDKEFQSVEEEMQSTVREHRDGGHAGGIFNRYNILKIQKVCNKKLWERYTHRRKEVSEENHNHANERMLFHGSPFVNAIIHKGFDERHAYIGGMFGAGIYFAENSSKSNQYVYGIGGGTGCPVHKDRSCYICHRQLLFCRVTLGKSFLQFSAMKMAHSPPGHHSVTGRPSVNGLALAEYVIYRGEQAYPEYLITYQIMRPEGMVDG
Procedure: C.2. In Vitro Scintillation Proximity Assay (SPA) for TANK-2 Inhibitory Activity
Compounds of the present invention were tested in an in vitro assay based on SPA technology with Ni Flash plates (96 or 384 well).
In principle, the assay relies upon SPA technology for the detection of auto-poly(ADP-ribosyl)ation of TANK-2 protein using [^3H]-nicotinamide adenine dinucleotide ([^3H]-NAD^+) as ADP-ribosyl donor.
A stock solution of 100 nM [^3H]-NAD^+/NAD (0.1 mCi/ml, supplier: Perkin Elmer) and 0.25 mM NAD (Sigma) was made in assay buffer (60 mM Tris/HCl, pH 7.4; 0.9 mM DTT; 6 mM MgCl2). The TANK-2 enzyme was produced as described in EP1238063. 60 μl of assay buffer, together with 1 μl of compound in DMSO, 20 μl of [^3H]-NAD^+/NAD and 20 μl of TANK-2 enzyme (final concentration 8 μg/ml) was added per well into a 96-well Ni-coated flash plate (Perkin Elmer). After incubation of the mixture for 120 min. at room temperature, the reaction was terminated by adding 60 μl of stopsolution (42.6 mg NAD in 6 ml H2O). The plates were covered with a plate sealer and placed in a TopCountNX™ (Packard) for scintillation counting. Values were expressed as counts per minute (cpm). For each experiment, controls (containing TANK-2 enzyme and DMSO without compound), a blank incubation (containing DMSO but no TANK-2 enzyme or compound) and samples (containing TANK-2 enzyme and compound dissolved in DMSO) were run in parallel. All compounds tested were dissolved and eventually further diluted in DMSO. […] In each test, the blank value was subtracted from both the control and the sample values. The control sample represented maximal TANK-2 enzyme activity. For each sample, the amount of cpm was expressed as a percentage of the mean cpm value of the controls. When appropriate, IC50-values (concentration of the drug, needed to reduce the TANK-2 enzyme activity to 50% of the control) were computed using linear interpolation between the experimental points just above and below the 50% level. Herein the effects of test compounds are expressed as pIC50 (the negative log value of the IC50-value). As reference compounds, 3-aminobenzamide and 4-amino-1,8-naphtalimide were included to validate the SPA assay. Herein the assay was described using 96-well plates. In the assay using 384-well plates the same final concentrations were used and volumes were adapted.

Row | Structure (SMILES) | melting point [°C] | IC50 (Human PARP-1 enzyme) [nM] | IC50 (TANK-2 enzyme) [nM]
1 | CCc1cc2ccc(CCCN3CCN(c4ccc(C#N)cn4)CC3)cc2[nH]c1=O (as salt: HCl) [Compound 8] | 174 | – | –
2 | CCc1cc2ccc(CNCCc3c[nH]c4ccccc34)cc2[nH]c1=O [Compound 1] | 155 | 13.4 | 1440
3 | CCc1cc2ccc(CN3CCN(c4ccccn4)CC3)cc2[nH]c1=O [Compound 2] | 252 | 0.605 | 687
4 | CCc1cc2ccc(CN3CCC(c4ccccc4)CC3)cc2[nH]c1=O [Compound 3] | 184 | 1.24 | 5450
5 | CCc1cc2ccc(CNCc3ccc(F)cc3)cc2[nH]c1=O [Compound 48] | – | 24.4 | 254
6 | CCc1cc2ccc(CNCc3ccccc3)cc2[nH]c1=O [Compound 49] | – | 42.9 | 155
7 | Cc1cc2ccc(C(C)N3CCC(c4ccc(Cl)cc4)CC3)cc2[nH]c1=O (centres unmarked) [Compound 50] | – | 1.5 | 2800
8 | Cc1cc2ccc(C(C)N3CC=C(c4ccccc4)CC3)cc2[nH]c1=O (centres unmarked) [Compound 51] | – | 1.49 | 1280
9 | Cc1cc2ccc(C(C)N3CCN(c4ccc(F)cc4F)CC3)cc2[nH]c1=O (centres unmarked) [Compound 52] | – | 1.42 | 2420
10 | Cc1cc2ccc(C(C)N3CCCCC3)cc2[nH]c1=O (centres unmarked) [Compound 53] | – | 49.8 | > 10000
11 | Cc1cc2ccc(C(C)N3CCN(C4CCCCC4)CC3)cc2[nH]c1=O (centres unmarked) [Compound 54] | – | 61.4 | > 10000
12 | COCCNC1CCN(C(C)c2ccc3cc(C)c(=O)[nH]c3c2)CC1 (centres unmarked) [Compound 55] | – | 92 | > 10000
13 | Cc1cc2ccc(C(C)N3CCN(c4ncccc4C(F)(F)F)CC3)cc2[nH]c1=O (centres unmarked) [Compound 56] | – | 225 | 1920
14 | Cc1cc2ccc(CN3CCN(c4ccccn4)CC3)cc2[nH]c1=O [Compound 57] | – | 1.48 | 4220
15 | Cc1cc2ccc(C(C)N3CCN(c4cccc(Cl)c4)CC3)cc2[nH]c1=O (centres unmarked) [Compound 58] | – | 95.9 | 2320
16 | Cc1cc2ccc(C(=O)N3CC=C(c4ccccc4)CC3)cc2[nH]c1=O [Compound 59] | – | 129 | 818
17 | Cc1cc2ccc(C(=O)N3CCN(c4ccccc4Cl)CC3)cc2[nH]c1=O [Compound 60] | – | 116 | > 10000
18 | CCc1cc2ccc(CN3CCCC3)cc2[nH]c1=O [Compound 61] | – | 5.36 | 4220
19 | CCc1cc2ccc(CN3CCN(c4ncc(C(=O)NCCO)cn4)CC3)cc2[nH]c1=O [Compound 62] | – | 8.95 | 33
20 | CCc1cc2ccc(CN3Cc4ccccc4C3)cc2[nH]c1=O [Compound 63] | – | 39.2 | 455
21 | Cc1cc2ccc(C(C3CCCCC3)N3CCC(c4ccccc4)CC3)cc2[nH]c1=O (centres unmarked) [Compound 65] | – | 4070 | > 10000
22 | Cc1cc2ccc(C(C(C)C)N3CCN(c4ccc(C#N)cn4)CC3)cc2[nH]c1=O (centres unmarked) [Compound 66] | – | 195 | 1230
23 | Cc1cc2ccc(C(C3CCCCC3)N3CCN(c4ccccc4C#N)CC3)cc2[nH]c1=O (centres unmarked) [Compound 67] | – | 708 | > 10000
24 | Cc1cc2ccc(C(C3CCCCC3)N3CCN(c4ccc(C#N)cn4)CC3)cc2[nH]c1=O (centres unmarked) [Compound 70] | – | 275 | 1910
25 | CCc1cc2c(OC)cc(CN3CCN(c4ccccc4Cl)CC3)cc2[nH]c1=O [Compound 71] | – | 4.27 | 1780
26 | COc1ccccc1N1CCN(C(c2ccc3cc(C)c(=O)[nH]c3c2)C2CCCCC2)CC1 (centres unmarked) [Compound 72] | – | ≥ 10000 | 933
27 | Cc1cc2ccc(C(C3CCCCC3)N3CC=C(c4ccccc4)CC3)cc2[nH]c1=O (centres unmarked) [Compound 73] | – | 1290 | 646
28 | Cc1cc2ccc(C(C)N3CCC(c4ccccc4)CC3)cc2[nH]c1=O (centres unmarked) [Compound 74] | – | 6.46 | 1860
29 | Cc1cc2ccc(C(C3CCCCC3)N3CCN(c4ccccn4)CC3)cc2[nH]c1=O (centres unmarked) [Compound 75] | – | 309 | > 10000
30 | Cc1cc2ccc(C(C)N3CCN(c4ccccc4Cl)CC3)cc2[nH]c1=O (centres unmarked) [Compound 76] | – | 0.646 | 1550
